Data as given in patent publication US20060140957A1, “Eph/ephrin mediated modulation of cell adhesion and tumour cell metastasis” (priority 2003, published 2006).

Legend:
EphA3/HEK 293 cells [1] = test: Biochemical demonstration of ephrin cleavage (Western blot); assay type: cell-based, human; details: cells stimulated with clustered ephrin-A5 Fc
Procedure: (§1) FIG. 6. Eph/ephrin mediated cell-cell repulsion, but not adhesion leads to ephrinA5 cleavage by a metalloprotease. • (A) Alexa ephrinA5-Fc (I, III) or Alexa EphA1 Fc (II) control proteins, conjugated onto protein A-coated Dynabeads were added to cultures of EphA3/HEK 293 cells (I, II) or LK63 cells (III). Cleavage and internalisation of the fluorescent proteins was monitored by confocal microscopy. Selected images of confocal time-lapse experiments (1 frame/min) are shown. Alexa 546 fluorescence is represented in white and outlines cells in panels I, while the cells in panels II, III appear dark-grey or black. • (B) Prior to stimulation (30 min) with Alexa ephrinA5-Fc coated beads (I, II) or with Alexa Fc control beads (III), parallel cultures of EphA3/293 cells were treated for 4 h with 5 mM 1′,10′-O-Phenanthroline (II) or left untreated (I, III). […] Using an EphA3-Fc construct, ephrin-A5 was immuno precipitated from lysates of EphA3/HEK 293 cells or LK63 cells, which had been treated for indicated times with 7.5 ì g/ml of pre-clustered (+X-lnk) or non-clustered (−X-lnk) ephrin-A5 Fc, and analysed for ephrin cleavage by Western blot with anti-ephrinA5 antibody. To assess cleavage by metalloproteases, parallel cultures were treated with 1′,10′-O-phenanthroline (+OPN) or left untreated. […]

EphA3/HEK 293 cells [2] = test: Cleavage and internalisation of Alexa-labelled protein from protein A Dynabeads; assay type: cell-based, human; details: 5 mM, 4 h prior to bead addition
Procedure: as §1, with “antibody.” for “antibody. To assess cleavage by metalloproteases, parallel cultures were treated with 1′,10′-O-phenanthroline (+OPN) or left untreated.”
Eph/ephrin stimulation was analysed in-situ by time-lapse confocal microscopy and immunocytochemistry as described (Lawrenson et al., 2002). […]

EphA3/HEK 293 cells [3] = test: Phosphatase inhibition, anti-EphA3 IP / anti-phosphotyrosine western blot; assay type: cell-based, human; details: increasing amounts
Procedure: (§2) FIG. 8. Phosphatase inhibition triggers EphA3 phosphorylation in LK63 cells • (A) Anti-EphA3 immunoprecipitates from TritonX100 lysates of EphA3/HEK 293, EphA3/AO2 melanoma cells and LK63 leukaemia cells were treated with either crosslinked ephrin-A5 or increasing concentrations of sodium pervanadate as indicated, and analysed by anti-phosphotyrosine western blot. • (B) Anti-EphA3 immunoprecipitates from TritonX100 lysates of vanadate or hydrogen peroxide-treated EphA3/HEK 293 (left panel) and EphA3/AO2 melanoma cells(right panel) were analysed as described in (A).

[4] = test system: EphA3/A02 malignant melanoma cells; test: as above; assay type: cell-based; details: increasing amounts
Procedure: as §2

LK63 cells = test: Cell morphology on ephrinA5-Fc coated glass coverslips (rhodamin-phalloidin); assay type: cell-based, human; details: 4 h
Procedure: FIG. 1. Surface-bound ephrinA5 causes either cell repulsion or cell adhesion of EphA3-positive tumour cells. • (A) EphA3-positive LK63 human pre-B leukemia cells and LiBr melanoma cells were plated onto glass coverslips coated with ephrinA5-Fc (ephrin, 10 μg/ml) or fibronectin (FN, 10 μg/ml). After 4h the cytoskeleton of adherent, fixed cells was stained with rhodamin-phalloidin. Pictures of representative fluorescence images are shown; the second column represents magnified sections of the first. Scale bar: 20 ì m. • (B) LK63 adhesion and LiBr de-adhesion to surface-bound ephrinA5 are dose-dependent. […] After 4-hour incubation, adherent cells, withstanding rigorous washing, were quantitated by XTT assay (A492 absorbance). Cell attachment is expressed as a percentage (mean, S.E. from three independent assays) relative to wells containing most adherent cells; ( ), LK63 and ( ), LiBr cells and ( ), LK63, ( ), LiBr cells with ephrin inhibition (+inh.). • (C) LiBr melanoma cells in matrigel-coated Basement Membrane migration chambers (Becton Dickinson, 5×10^4/well) were exposed to chemoattractant, 3T3 conditioned media (cond. media) or 1.5 ì g/ml pre-clustered ephrin-A5 Fc in the bottom chamber, or with 1.5 ì g/mil pre-clustered ephrin-A5 Fc placed together with cells into the top chamber. […]

LK63 leukaemia cells = test: Phosphatase inhibition, anti-EphA3 IP / anti-phosphotyrosine western blot; assay type: cell-based, human; details: highest concentration tested (1 mM)
Procedure: as §2

[5] = test system: HEK293 cells expressing 3YF EphA3GFP; test: FLIM/FRET of EphA3 phosphorylation after phosphatase inhibition; assay type: cell-based, human; details: 30 min, high concentrations
Procedure: (§3) FIG. 7. Pervanadate-induced Eph receptor phosphorylation HEK293 cells, expressing w/t EphA3GFP (A) or 3YF EphA3GFP (B) were incubated with pervanadate (30 min) at indicated concentrations. Fixed cells were examined for FRET as described above. Left, GFP-fluorescence; right, GFP fluorescence lifetime phase maps. Tabulated colour codes indicate GFP lifetimes in ns.
(§4) GFP EphA3 (w/t or mutant) expressing cells were stimulated, fixed, permeabilised and stained with Cy3-conjugated anti phosphotyrosine monoclonal antibody PY72 prior to mounting onto glass slides using Mowiol (Calbiochem). Fluorescence lifetime imaging microscopy (FLIM) sequences were obtained at 80 MHz with an Olympus IX70 microscope (100/1.4 NA oil immersion lens) and analysed as described (Reynolds, Tischer et al. 2003). A 476-nm argon laser line and narrow-band emission filter (HQ510/20; Chroma) were used for GFP, a 100-W mercury arc lamp with high Q Cy3 filter set (excite, HQ545/30; dicroic, Q580LP; emitter, HQ610/75) for Cy3 and Alexa 546. GFP Fluorescence was detected with a dichroic beamsplitter (Q495 LP; Chroma Technology, Brattleboro, Vt.) and narrow-band emission filter. Stimulated FRET was measured in live 293 cells between transiently expressed ephrin-A2GFP and Alexa546 EphA3-Fc.

[6] = test system: HEK293 cells expressing w/t EphA3GFP; test: as above; assay type: cell-based, human; details: 30 min, increasing concentrations
Procedure: as §3, §4

| Compound | effect on ephrin cleavage (anti-ephrinA5 Western blot) (EphA3/HEK 293 cells [1]) | effect on ephrin cleavage and internalisation from Alexa ephrin-A5-Fc beads (EphA3/HEK 293 cells [2]) | EphA3 phosphorylation (EphA3/HEK 293 cells [3]) | EphA3 phosphorylation [4] | LK63 morphology on ephrin-coated coverslips under phosphatase inhibition (LK63 cells) | EphA3 phosphorylation compared with EphA3/HEK 293 and EphA3/A02 cells (LK63 leukaemia cells) | GFP fluorescent lifetime (receptor phosphorylation) [5] | GFP fluorescent lifetime (receptor phosphorylation) [6] |
| --- | --- | --- | --- | --- | --- | --- | --- | --- |
| c1cnc2c(c1)ccc1cccnc12 [1′,10′-O-Phenanthroline] | significantly-reduced ephrin cleavage | completely abrogated ephrin cleavage and internalisation | – | – | – | – | – | – |
| OO [H2O2, hydrogen peroxide] | – | – | dose dependent increase in EphA3 phosphorylation | dose dependent increase in EphA3 phosphorylation | – | – | – | – |
| sodium-pervanadate | – | – | dose dependent increase in EphA3 phosphorylation | dose dependent increase in EphA3 phosphorylation | lose their characteristic extensions and appear rounded | significantly lower | retained their GFP lifetime | dramatic dose-dependent decrease in the GFP fluorescent lifetime |
